Experimental data published in article PMC9961948, “Interaction of Amphipathic Peptide from Influenza Virus M1 Protein with Mitochondrial Cytochrome Oxidase” (International Journal of Molecular Sciences, 2023).
Values joined by “and” are separate entries in the source; they are usually repeats but may differ in a detail not shown here. Equal values may be shown once. “Also recorded” adds a separate entry of the source. Read-outs that look alike come from different tables or passages of the source.

Legend:
[1] = molecular target: T1, CcO in rat liver mitochondria (Rattus norvegicus, UniProt P00406+P05503); test: CcO activity in the mitochondrial membrane (respiration of rat liver mitochondria); format: biochemical; details: 100 μM peptide added in the course of respiration
T1 construct: Rat liver mitochondria were isolated by differential centrifugation; from tissue; host or cells: rat liver mitochondria

[2] = Permeabilization of calcein-loaded asolectin liposomes (calcein release); details: 5 μM peptide
[3] = molecular target: T2, cytochrome c oxidase (CcO) purified from heart mitochondria (Bos taurus, UniProt P00396+P07471+P68530); test: Cytochrome oxidase activity of solubilized mitochondrial CcO (oxygen uptake); format: biochemical; details: for enzyme activation at low concentrations: solubilized CcO from bovine heart mitochondria and from R. sphaeroides, authors' unpublished data
T2 construct: Cytochrome c oxidase was purified from the heart mitochondria of Bos taurus; from tissue; host or cells: bovine heart mitochondria

[4] = molecular target: T2, cytochrome c oxidase (CcO) purified from heart mitochondria; details: earlier studies on steroids, Triton X-100 and thyroid hormones; ref [47],[48],[49]; read-out: dissociation constant of the complex between DM and BABS; cited from earlier work
Excerpt: The inhibition is notable by features characteristic of BABS regulatory site ligands such as some steroids and vitamin D [47], Triton Х-100 [48], and thyroid hormones Т3, Т4 [49]. […] The resistance of peroxidase activity is explained by the fact that the BABS ligands block the proton channel K, which is not involved in the p ...

T1 sequence (P00406 whole entry, other chains not shown): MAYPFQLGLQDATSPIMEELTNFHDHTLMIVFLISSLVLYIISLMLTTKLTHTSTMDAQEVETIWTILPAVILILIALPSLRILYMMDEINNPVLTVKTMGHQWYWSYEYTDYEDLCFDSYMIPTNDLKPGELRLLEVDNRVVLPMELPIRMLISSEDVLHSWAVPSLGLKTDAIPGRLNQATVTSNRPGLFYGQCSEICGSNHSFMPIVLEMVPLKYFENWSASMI

Compound: Ac-STKLWEMLVELGNMDKAVKLWRKLSR-NH2 [A4]
- effect on respiration rate of mitochondria [1]: complete inhibition
- time to reach the 100% level of calcein release ([2]; 100% = after Triton X-100 0.1%): 3 min
- t1/2 of fluorescence increase (calcein release) ([2]; liposomes 0.1 mg lipid/mL, 20 mM MOPS/Tris pH 7.3, 0.2 mM EDTA, fluorescence 520 nm (excitation 490 nm)): ~18 s

Compound: Ac-WVGMALENRKLKKDRLKVLKMLRWT-NH2 [A1]
- Ki ([3]; solubilized bovine heart CcO 20 nM, oxygen uptake, Clark electrode, 25 °C, BM 50 mM Hepes/Tris pH 7.6, 50 mM KCl, 1 mM (0.05%) DM, 5 mM ascorbate, 0.1 mM TMPD, 10 μM cytochrome c, fit by Equation (1), read-out: Inhibition of CcO, Solubilized, Ki(app)): 0.0208 mM
- effect on respiration rate of mitochondria [1]: does not reduce the rate of enzyme activity; also recorded: almost does not change
- calcein release compared with P4 and A4 [2]: more than two orders of magnitude slower
- rate of fluorescence increase (calcein release) [2]: < 1 % of the final level per 1 min

Compound: C[C@H](CCC(=O)O)[C@H]1CC[C@H]2[C@@H]3CC[C@@H]4C[C@H](O)CC[C@]4(C)[C@H]3C[C@H](O)[C@]12C [deoxycholate, reference compound]
- enzyme activation at low concentrations [3]: 1.5–2 fold
- maximum activation of CcO ([3]; solubilized mitochondrial CcO, 1 mM DM, 1.2 mM deoxycholate): approximately twice

Compound: CCCCCCCCCCCCO[C@@H]1O[C@H](CO)[C@@H](O[C@H]2O[C@H](CO)[C@@H](O)[C@H](O)[C@H]2O)[C@H](O)[C@H]1O [DM, dodecyl-maltoside, reference compound]
- Kd ([3]; dissociation constant of the enzyme-DM complex in the absence of P4 (Kc), solubilized mitochondrial CcO, X-axis intercept of Ki(app) for P4 versus [DM]): 500 µM and ~500 µM
- Kd [4]: 1000 to 1500 µM

Compound: C[C@H](CCC(=O)O)[C@H]1CC[C@H]2[C@@H]3[C@H](O)C[C@@H]4C[C@H](O)CC[C@]4(C)[C@H]3C[C@H](O)[C@]12C [cholate, reference compound]
- enzyme activation at low concentrations [3]: 1.5–2 fold
